From paper PMC12196213, “New Insights into the Anticancer Effects and Toxicogenomic Safety of Two β-Lapachone Derivatives” (Pharmaceuticals, 2025)
Where “and” joins values, the source holds several entries; their conditions need not be identical. Equal values may be shown once.

How the values were obtained:
[1] = system: HepG2 (human hepatocellular carcinoma); assay: MTT cytotoxicity assay, HepG2; assay type: cell-based; conditions: for IC50: Homo sapiens, HepG2, 72 h, MTT; for selectivity index (SI): IC50 L929 / IC50 HepG2, 72 h
Description: (§1) To assess the cytotoxicity of the compounds, the MTT [3-(4,5-dimethylthiazol-2-yl)-2,5-diphenyltetrazolium bromide] assay was employed. The cells (2 × 10^5/mL) were incubated with the substances at concentrations ranging from 0.78 to 25 µg/mL. β-lap was used as a positive control. After 24, 48, or 72 h of incubation, MTT was added at a concentration of 5 mg/mL. Cell viability in different treatments was compared to the negative control using the following formula: Cell viability%=mean absorbance of treated samples/mean absorbance of negative control×100 The IC50 (the concentration that inhibits 50% of cell growth compared to the negative control) was calculated using nonlinear regression in GraphPad Prism 8.0 for Windows (GraphPad Demo Software, San Diego, CA, USA). Experiments were performed in triplicate and in two independent experiments. The protocol is also described in other previous publications. The IC50 of normal and cancer cells was used to calculate the SI of compounds BV3 and BV5. The SI indicated the selectivity of the compounds among the normal cell line (L-929) and a cancer cell line (HCT-116, MDA-MB-231, HepG2, or HeLa). SI is a crucial parameter for therapeutic applications in upcoming clinical trials. Therefore, the following formula was used to calculate SI: SI=IC50(normal cell line)/IC50(cancer cell line)

[2] = system: MDA-MB-231 (human breast adenocarcinoma); assay: MTT cytotoxicity assay, MDA-MB-231; assay type: cell-based; conditions: for IC50: Homo sapiens, MDA-MB-231, MDA-MD-231 (so in the source), 72 h, MTT; for selectivity index (SI): IC50 L929 / IC50 MDA-MD-231, 72 h
Description: as §1

[3] = system: HCT-116 (human colon carcinoma); assay: MTT cytotoxicity assay, HCT-116; assay type: cell-based; conditions: for IC50: Homo sapiens, HCT-116, 72 h, MTT; for selectivity index (SI): IC50 L929 / IC50 HCT-116, 72 h
Description: as §1

[4] = system: HeLa (human cervical adenocarcinoma); assay: MTT cytotoxicity assay, HeLa; assay type: cell-based; conditions: for IC50: Homo sapiens, HeLa, MTT; for selectivity index (SI): IC50 L929 / IC50 HeLa
Description: as §1

[5] = system: L929 (murine fibroblasts); assay: MTT cytotoxicity assay, L929; assay type: cell-based; conditions: Mus musculus, L929, 72 h
Description: as §1, with “publications.” for “publications. The IC50 of normal and cancer cells was used to calculate the SI of compounds BV3 and BV5. The SI indicated the selectivity of the compounds among the normal cell line (L-929) and a cancer cell line (HCT-116, MDA-MB-231, HepG2, or HeLa). SI is a crucial parameter for therapeutic applications in upcoming clinical trials. Therefore, the following formula was used to calculate SI: SI=IC50(normal cell line)/IC50(cancer cell line)”

HeLa cells = assay: Annexin V-FITC / propidium iodide flow cytometry (apoptosis or necrosis); assay type: cell-based, human; conditions: 48 h; for necrosis compared to negative control: BV3 at the IC50 concentration; for cell viability compared to negative control: IC50 or 2 × IC50
Description: The analysis was performed using flow cytometry with the Annexin V Apoptosis Detection Kit (eBioscience™, USA) following the manufacturer’s instructions. Initially, HeLa cells were incubated at a concentration of 4 × 10^5 cells/mL and treated with the compounds at their IC50 or 2 × IC50 values obtained at 48 h. β-lap was used as a positive control, and the culture medium as the negative control. After 48 h of treatment, the cells were trypsinized and centrifuged at 1200× g for 5 min. Subsequently, the cells were washed with PBS and centrifuged again. The cells were then resuspended in buffer and incubated with 5 µL of Annexin V-FITC for 10 min. Afterward, the cells were washed with the buffer, centrifuged, resuspended in the buffer, and stained with 10 µL of propidium iodide. The cells were acquired using the Guava EasyCyteHT cytometer (Merck-Millipore, Burlington, MA, USA) with Guava—Soft™ software version 2.7. A total of 5000 events were counted per treatment.

| Compound | IC50 [1] [µM] | selectivity index (SI) [1] | IC50 [2] [µM] | selectivity index (SI) [2] | IC50 [3] [µM] | selectivity index (SI) [3] | IC50 ([4]; 24 h) [µM] | IC50 ([4]; 48 h) [µM] | IC50 ([4]; 72 h) [µM] | selectivity index (SI) ([4]; 72 h) | IC50 [5] [µM] | necrosis compared to negative control (HeLa cells) | cell viability compared to negative control (HeLa cells) | early apoptosis compared to negative control (HeLa cells) |
| --- | --- | --- | --- | --- | --- | --- | --- | --- | --- | --- | --- | --- | --- | --- |
| CC1(C)CCC2=C(O1)c1ccccc1/C(=N/NC(=S)Nc1ccc([N+](=O)[O-])cc1)C2=O [BV3, 2-(2,2-dimethyl-5-oxo-3,4-dihydro-2H-benzo[h]chromen-6(5H)-ylidene)-N-(4nitrophen-yl)thio-carbohydrazide] | 12.6 | 3.47 | 16.5 | 2.66 | 20.6 | 2.13 | > 57 | 23.5 | 2.81 | 15.6 | 44 | increases | significantly decreased cell viability |  |
| Cc1ccc(NC(=S)N/N=C2\C(=O)C3=C(OC(C)(C)CC3)c3ccccc32)cc1 [BV5, 2-(2,2-dimethyl-5-oxo-3,4-dihydro-2H-benzo[h]chromen-6(5H)-ylidene)-N-(p-tolyl)-thiocarbohydrazide] | 17.9 |  | 15.5 |  | 36.9 |  | > 61 | 24.5 | 17.8 |  | 13.1 |  | significantly decreased cell viability |  |
| CC1(C)CCC2=C(O1)c1ccccc1C(=O)C2=O [β-lap, β-Lapachone] | 0.12 | 37.8 | 3.38 | 1.34 | 0.14 | 32.4 | 10.7 | 8.87 | 2.39 | 1.89 and 1.9 | 4.54 | increases | reduced the number of viable cells | significantly increased |
